# Data: patent US20210386071A1, “ANTI-NON-ENVELOPED VIRUS AGENT AND COMPOSITION CONTAINING SAME, AND ANTI-VIRAL PRODUCT AND METHOD FOR PRODUCING SAME” (TOAGOSEI CO., LTD., priority 2018, published 2021)
# Tested on: feline calicivirus
# Test: Antiviral activity value (Mv) by methods of JIS L 1922, plaque count measurement of virus infectivity
# Procedure: The performance of each of the above antiviral agents was evaluated by applying methods shown in JIS L 1922 (antiviral property test method of fiber product), and an antiviral activity value (Mv) obtained was used to determine the antiviral property. […] Purified water was added to the antiviral agent so that its concentration was 0.1% by mass. Next, 100 μL of feline calicivirus solution having a virus infectivity of 1 to 5×10^7 PFU/mL was added to 900 μL of the above liquid, and a mixed liquid was allowed to stand at a temperature of 25° C. for 2 hours. Thereafter, the mixed liquid was recovered, and the recovered liquid was subjected to a plaque count measurement method to measure the virus infectivity. The virus infectivity was measured in the same manner as the test sample except that 900 μL of phosphate buffered saline (PBS) was used as a control sample instead of the test sample. The performance of the antiviral agent was evaluated by the antiviral activity value (Mv) obtained by the following formula. Mv=Log (virus infectivity of control sample)−Log (virus infectivity of test sample)
compound,measurement,value
"[Ca+2].[OH-].[OH-] [V3, calcium hydroxide]",Antiviral activity value Mv,4.2
same,antiviral properties (assessment in words),excellent antiviral properties
